Drawing on patent publication US8735398B2 (Bristol-Myers Squibb Company, priority 2009, dated 2014), this text covers EC50 for 26 compounds.

One assay has as its system HCV 1b genotype. Put plainly: HCV replicon assay (HCV-neo replicon cells, wild-type). It is filed as cell-based, Hepatitis C virus. Particulars: Hepatitis C virus, HCV 1b genotype replicon; class symbol; read-out: EC50 Range against HCV 1b. The gist of the method: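 HCV-neo replicon cells (wild-type) and replicon cells carrying NS5A resistance substitutions were treated with compounds; assay per O'Boyle et al. 2005, with luciferase-reporter read-out variants also used.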
The EC50 is the concentration needed to bring the measured effect to its halfway point. Take `CC(=O)N1CCC[C@H]1C(=O)Nc1ccc(-c2ncc(-c3ccc(NC(=O)[C@@H]4CCCN4C(=O)Cc4ccccc4)cc3)o2)cc1` [MS-6, (2S)-1-acetyl-N-(4-(5-(4-((((2S)-1-(phenylacetyl)-2-pyrrolidinyl)carbonyl)amino)phenyl)-1,3-oxazol-2-yl)phenyl)-2-pyrrolidinecarboxamide]: the EC50 lay in the range of 100 to 999 nM. Take `CC(=O)N1CCC[C@H]1C(=O)Nc1ccc(-c2cnc(-c3ccc(NC(=O)[C@@H]4C=CCN4C(=O)c4cccs4)cc3)o2)cc1` [MS-7, (2S)-N-[4-[5-[4-[[[(2S)-1-acetyl-2-pyrrolidinyl]carbonyl]amino]phenyl]-2-oxazolyl]phenyl]-2,5-dihydro-1-(2-thienylcarbonyl)-1H-pyrrole-2-carboxamide]: the EC50 lay within 1000 to 10000 nM. As for `O=C(Nc1ccc(-c2nnc(-c3ccc(NC(=O)[C@@H]4CCCN4C(=O)OCc4ccccc4)cc3)o2)cc1)[C@@H]1CCCN1C(=O)OCc1ccccc1` [MS-8, (2S,2′S)-2,2′-[1,3,4-oxadiazole-2,5-diylbis(4,1-phenyleneiminocarbonyl)]bis-1-pyrrolidinecarboxylic acid, bis(phenylmethyl) ester], the EC50 was in the range of 4.57 to 99 nM.

Regarding `O=C(Nc1ccc(-c2nnc(-c3ccc(NC(=O)[C@@H]4CCCN4C(=O)Cc4ccccc4)cc3)o2)cc1)[C@@H]1CCCN1C(=O)Cc1ccccc1` [MS-9, (2S,2′S)-N,N′-(4,4′-(1,3,4-oxadiazole-2,5-diyl)bis(4,1-phenylene))bis(1-(2-phenylacetyl)pyrrolidine-2-carboxamide)], the EC50 was in the range of 100 to 999 nM.

In the case of `C[C@H](NC(=O)OCc1ccccc1)C(=O)Nc1ccc(-c2nc(CC(=O)O)oc2-c2ccc(NC(=O)[C@H](C)NC(=O)OCc3ccccc3)cc2)cc1` [OL-1, 4,5-bis[4-[[(2S)-1-oxo-2-[[(phenylmethoxy)carbonyl]amino]propyl]amino]phenyl]-2-oxazoleacetic acid], the EC50 is 1000 to 10000 nM. For `CCOC(=O)Cc1nc(-c2ccc(NC(=O)[C@H](C)NC(=O)OCc3ccccc3)cc2)c(-c2ccc(NC(=O)[C@H](C)NC(=O)OCc3ccccc3)cc2)o1` [OL-1d, 4,5-bis[4-[[(2S)-1-oxo-2-[[(phenylmethoxy)carbonyl]amino]propyl]amino]phenyl]-2-oxazoleacetic acid, ethyl ester], the EC50 lay in the range of 1000 to 10000 nM. Still for that read-out and setting: with `CCOC(=O)Cc1nc(-c2ccc(NC(=O)[C@@H]3CCCN3C(=O)OCc3ccccc3)cc2)c(-c2ccc(NC(=O)[C@@H]3CCCN3C(=O)OCc3ccccc3)cc2)o1` [OL-2, 4,5-bis[4-[[[(2S)-1-[(phenylmethoxy)carbonyl]-2-pyrrolidinyl]carbonyl]amino]phenyl]-2-oxazoleacetic acid, ethyl ester] the figure was 1000 to 10000 nM. For the compound `O=C(O)Cc1nc(-c2ccc(NC(=O)[C@@H]3CCCN3C(=O)OCc3ccccc3)cc2)c(-c2ccc(NC(=O)[C@@H]3CCCN3C(=O)OCc3ccccc3)cc2)o1` [OL-3, 4,5-bis[4-[[[(2S)-1-[(phenylmethoxy)carbonyl]-2-pyrrolidinyl]carbonyl]amino]phenyl]-2-oxazoleacetic acid], the EC50 lay within 1000 to 10000 nM. As for `Cc1nc(-c2ccc(NC(=O)[C@H](C)NC(=O)OCc3ccccc3)cc2)c(-c2ccc(NC(=O)[C@H](C)NC(=O)OCc3ccccc3)cc2)o1` [OL-4, [(2-methyl-4,5-oxazolediyl)bis[4,1-phenyleneimino[(1S)-1-methyl-2-oxo-2,1-ethanediyl]]]bis-carbamic acid, bis(phenylmethyl) ester], the EC50 is 100 to 999 nM.

As to `Cc1nc(-c2ccc(NC(=O)[C@@H]3CCCN3C(=O)OCc3ccccc3)cc2)c(-c2ccc(NC(=O)[C@@H]3CCCN3C(=O)OCc3ccccc3)cc2)o1` [OL-5, (2S,2′S)-2,2′-[(2-methyl-4,5-oxazolediyl)bis(4,1-phenyleneiminocarbonyl)]bis-1-pyrrolidinecarboxylic acid, bis(phenylmethyl) ester], the EC50 lay in the range of 100 to 999 nM. On the same count and under the same terms, to `CN(C)Cc1nc(-c2ccc(NC(=O)[C@@H]3CCCN3C(=O)Cc3ccccc3)cc2)c(-c2ccc(NC(=O)[C@@H]3CCCN3C(=O)Cc3ccccc3)cc2)o1` [OL-6] belongs 1000 to 10000 nM; to `O=C(Nc1ccc(-c2nc[nH]c2-c2ccc(NC(=O)[C@@H]3CCCN3C(=O)OCc3ccccc3)cc2)cc1)[C@@H]1CCCN1C(=O)OCc1ccccc1` [OL-7, (2S,2′S)-2,2′-[1H-imidazole-4,5-diylbis(4,1-phenyleneiminocarbonyl)]bis-1-pyrrolidinecarboxylic acid, bis(phenylmethyl) ester], 4.57 to 99 nM; to `C[C@H](NC(=O)OCc1ccccc1)C(=O)Nc1ccc(-c2nc[nH]c2-c2ccc(NC(=O)[C@H](C)NC(=O)OCc3ccccc3)cc2)cc1` [OL-8, [1H-imidazole-4,5-diylbis[4,1-phenyleneimino[(1S)-1-methyl-2-oxo-2,1-ethanediyl]]]bis-carbamic acid, bis(phenylmethyl) ester], 4.57 to 99 nM. Still for that read-out and setting: to `C[C@H](NC(=O)Cc1ccccc1)C(=O)Nc1ccc(-c2nc[nH]c2-c2ccc(NC(=O)[C@H](C)NC(=O)Cc3ccccc3)cc2)cc1` [OL-9, (2S,2′S)-N,N′-(1H-imidazole-4,5-diyldi-4,1-phenylene)bis(2-((phenylacetyl)amino)propanamide)] belongs 1000 to 10000 nM.

For `O=C(Nc1ccc(-c2nc[nH]c2-c2ccc(NC(=O)[C@@H]3CCCN3C(=O)Cc3ccccc3)cc2)cc1)[C@@H]1CCCN1C(=O)Cc1ccccc1` [OL-10, (2S,2′S)-N,N′-(1H-imidazole-4,5-diyldi-4,1-phenylene)bis(1-(phenylacetyl)-2-pyrrolidinecarboxamide)], the concentration giving a half-maximal response (EC50) fell in the range of 4.57 to 99 nM. Consider `O=C(Nc1ccc(-c2nc[nH]c2-c2ccc(NC(=O)[C@@H]3C[C@@H](O)CN3C(=O)Cc3ccccc3)cc2)cc1)[C@@H]1C[C@@H](O)CN1C(=O)Cc1ccccc1` [OL-11], for which the EC50 was in the range of 100 to 999 nM. The same measure, in the same setting: to `C[C@H](NC(=O)OCc1ccccc1)C(=O)Nc1ccc(-c2n[nH]c(=O)n2-c2ccc(NC(=O)[C@H](C)NC(=O)OCc3ccccc3)cc2)cc1` [OL-12, [(1,5-dihydro-5-oxo-4H-1,2,4-triazole-3,4-diyl)bis[4,1-phenyleneimino[(1S)-1-methyl-2-oxo-2,1-ethanediyl]]]bis-carbamic acid, bis(phenylmethyl) ester] belongs 1000 to 10000 nM; to `O=C(Nc1ccc(-c2n[nH]c(=O)n2-c2ccc(NC(=O)[C@@H]3CCCN3C(=O)OCc3ccccc3)cc2)cc1)[C@@H]1CCCN1C(=O)OCc1ccccc1` [OL-13, (2S,2′S)-2,2′-[(1,5-dihydro-5-oxo-4H-1,2,4-triazole-3,4-diyl)bis(4,1-phenyleneiminocarbonyl)]bis-1-pyrrolidinecarboxylic acid, bis(phenylmethyl) ester,], 1000 to 10000 nM. Take `O=C(Nc1ccc(-c2nncn2-c2ccc(NC(=O)[C@@H]3CCCN3C(=O)OCc3ccccc3)cc2)cc1)[C@@H]1CCCN1C(=O)OCc1ccccc1` [OL-14, (2S,2′S)-2,2′-[4H-1,2,4-triazole-3,4-diylbis(4,1-phenyleneiminocarbonyl)]bis-1-pyrrolidinecarboxylic acid, bis(phenylmethyl) ester]: the EC50 lay within 1000 to 10000 nM. With `O=C(Nc1ccc(-c2nncn2-c2ccc(NC(=O)[C@@H]3CCCN3C(=O)Cc3ccccc3)cc2)cc1)[C@@H]1CCCN1C(=O)Cc1ccccc1` [OL-15, (2S,2′S)-N,N′-(4H-1,2,4-triazole-3,4-diyldi-4,1-phenylene)bis[1-(phenylacetyl)-2-pyrrolidinecarboxamide]], the EC50 lay in the range of 1000 to 10000 nM. For `C[C@H](NC(=O)OCc1ccccc1)C(=O)Nc1ccc(-c2nncn2-c2ccc(NC(=O)[C@H](C)NC(=O)OCc3ccccc3)cc2)cc1` [OL-16, [(1S)-1-methyl-2-oxo-2-[[4-[3-[4-[[(2S)-1-oxo-2-[[(phenylmethoxy)carbonyl]amino]propyl]amino]phenyl]-4H-1,2,4-triazol-4-yl]phenyl]amino]ethyl]-carbamic acid, phenylmethyl ester], the EC50 was 1000 to 10000 nM. For the compound `O=C(Nc1ccc(-c2nncn2-c2ccc(NC(=O)[C@@H]3C[C@@H](O)CN3C(=O)Cc3ccccc3)cc2)cc1)[C@@H]1C[C@@H](O)CN1C(=O)Cc1ccccc1` [OL-17, (2S,4R,2′S,4′R)-N,N′-(4H-1,2,4-triazole-3,4-diyldi-4,1-phenylene)bis[4-hydroxy-1-(phenylacetyl)-2-pyrrolidinecarboxamide]], the EC50 fell in the range of 1000 to 10000 nM. Still for that read-out and setting: with `C[C@H](NC(=O)OCc1ccccc1)C(=O)Nc1ccc(-c2n[nH]nc2-c2ccc(NC(=O)[C@H](C)NC(=O)OCc3ccccc3)cc2)cc1` [OL-18, [(1S)-1-methyl-2-oxo-2-[[4-[4-[4-[[(2S)-1-oxo-2-[[(phenylmethoxy)carbonyl]amino]propyl]amino]phenyl]-1H-1,2,3-triazol-5-yl]phenyl]amino]ethyl]-carbamic acid, phenylmethyl ester] the figure was 4.57 to 99 nM; with `O=C(Nc1ccc(-c2n[nH]nc2-c2ccc(NC(=O)[C@@H]3CCCN3C(=O)OCc3ccccc3)cc2)cc1)[C@@H]1CCCN1C(=O)OCc1ccccc1` [OL-19, (2S,2′S)-2,2′-[1H-1,2,3-triazole-4,5-diylbis(4,1-phenyleneiminocarbonyl)]bis-1-pyrrolidinecarboxylic acid, bis(phenylmethyl) ester], 4.57 to 99 nM; with `O=C(Nc1ccc(-c2n[nH]nc2-c2ccc(NC(=O)[C@@H]3CCCN3C(=O)Cc3ccccc3)cc2)cc1)[C@@H]1CCCN1C(=O)Cc1ccccc1` [OL-20, (2S,2′S)-N,N′-(1H-1,2,3-triazole-4,5-diyldi-4,1-phenylene)bis[1-(phenylacetyl)-2-pyrrolidinecarboxamide]], 4.57 to 99 nM. Turning to `O=C(Nc1ccc(-c2n[nH]nc2-c2ccc(NC(=O)[C@@H]3C[C@@H](O)CN3C(=O)Cc3ccccc3)cc2)cc1)[C@@H]1C[C@@H](O)CN1C(=O)Cc1ccccc1` [OL-21, (2S,4R,2′S,4′R)-N,N′-(1H-1,2,3-triazole-4,5-diyldi-4,1-phenylene)bis(4-hydroxy-1-(phenylacetyl)-2-pyrrolidinecarboxamide)], the half-maximal effective concentration (EC50) fell in the range of 100 to 999 nM.

The assay is the same for the next values; noted with them: Hepatitis C virus, HCV 1b genotype replicon; read-out: EC50 1b.
In the case of `CC(=O)N1CCC[C@H]1C(=O)Nc1ccc(-c2ncc(-c3ccc(NC(=O)[C@@H]4CCCN4C(=O)Cc4ccccc4)cc3)o2)cc1` [MS-6, (2S)-1-acetyl-N-(4-(5-(4-((((2S)-1-(phenylacetyl)-2-pyrrolidinyl)carbonyl)amino)phenyl)-1,3-oxazol-2-yl)phenyl)-2-pyrrolidinecarboxamide], the EC50 came out at 188 nM.

On to `O=C(Nc1ccc(-c2nnc(-c3ccc(NC(=O)[C@@H]4CCCN4C(=O)OCc4ccccc4)cc3)o2)cc1)[C@@H]1CCCN1C(=O)OCc1ccccc1` [MS-8, (2S,2′S)-2,2′-[1,3,4-oxadiazole-2,5-diylbis(4,1-phenyleneiminocarbonyl)]bis-1-pyrrolidinecarboxylic acid, bis(phenylmethyl) ester], for which the EC50 stood at 90 nM.

With `O=C(Nc1ccc(-c2nnc(-c3ccc(NC(=O)[C@@H]4CCCN4C(=O)Cc4ccccc4)cc3)o2)cc1)[C@@H]1CCCN1C(=O)Cc1ccccc1` [MS-9, (2S,2′S)-N,N′-(4,4′-(1,3,4-oxadiazole-2,5-diyl)bis(4,1-phenylene))bis(1-(2-phenylacetyl)pyrrolidine-2-carboxamide)], the concentration for a half-maximal effect (EC50) was 150 nM.

For the compound `Cc1nc(-c2ccc(NC(=O)[C@H](C)NC(=O)OCc3ccccc3)cc2)c(-c2ccc(NC(=O)[C@H](C)NC(=O)OCc3ccccc3)cc2)o1` [OL-4, [(2-methyl-4,5-oxazolediyl)bis[4,1-phenyleneimino[(1S)-1-methyl-2-oxo-2,1-ethanediyl]]]bis-carbamic acid, bis(phenylmethyl) ester], the EC50 worked out at 220 nM. As for `C[C@H](NC(=O)OCc1ccccc1)C(=O)Nc1ccc(-c2n[nH]nc2-c2ccc(NC(=O)[C@H](C)NC(=O)OCc3ccccc3)cc2)cc1` [OL-18, [(1S)-1-methyl-2-oxo-2-[[4-[4-[4-[[(2S)-1-oxo-2-[[(phenylmethoxy)carbonyl]amino]propyl]amino]phenyl]-1H-1,2,3-triazol-5-yl]phenyl]amino]ethyl]-carbamic acid, phenylmethyl ester], the EC50 turned out to be 92 nM.
